Data on 1 molecule can be found in US7888000B2, “Method for identifying salt-sensitive persons” (Morehouse School of Medicine, priority 2002, dated 2011).

For series [1], the system named is Dahl salt-sensitive (S) rats. The conditions noted are these: exogenous 25-OHD; S rats fed a high salt diet; cited from earlier work.
The conditions of series [2]: rat, in vivo.

For the molecule `C=C1CC[C@H](O)C/C1=C/C=C1\CCC[C@]2(C)[C@@H]([C@H](C)CCCC(C)(C)O)CC[C@@H]12` [25-OHD, 25-hydroxycholecalciferol], the “attenuation of the blood pressure increase” value in series [1] is “will not attenuate the blood pressure increase”. Besides, in series [2], the “increase of plasma 25-OHD” value is recorded as “successful in S rats fed low”.
